Measured values taken from PubChem BioAssay (NCI).
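The concentration for 50% growth inhibition is given as GI50. TGI is the concentration that stops growth completely.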

Legend:
Test in all cases: NCI-60 cell line screen, 384-well format
[1] = test system: 786-0 renal
[2] = test system: A498 renal
[3] = test system: A549 NSCLC
[4] = test system: ACHN renal
[5] = test system: BT-549 breast
[6] = test system: CAKI-1 renal
[7] = test system: COLO 205 colon
[8] = test system: DU-145 prostate
[9] = test system: EKVX NSCLC
[10] = test system: HCT-116 colon
[11] = test system: HCT-15 colon
[12] = test system: HL-60(TB) leukemia
[13] = test system: HOP-62 NSCLC
[14] = test system: HOP-92 NSCLC
[15] = test system: HT29 colon
[16] = test system: IGROV1 ovarian
[17] = test system: K-562 leukemia
[18] = test system: KM12 colon
[19] = test system: M14 melanoma
[20] = test system: MALME-3M melanoma
[21] = test system: MCF7 breast
[22] = test system: MDA-MB-231 breast
[23] = test system: MDA-MB-435 melanoma
[24] = test system: MDA-MB-468 breast
[25] = test system: MOLT-4 leukemia
[26] = test system: NCI-H226 lung
[27] = test system: NCI-H23 lung
[28] = test system: NCI-H322M lung
[29] = test system: NCI-H460 NSCLC
[30] = test system: NCI-H522 lung
[31] = test system: OVCAR-3 ovarian
[32] = test system: OVCAR-4 ovarian
[33] = test system: OVCAR-5 ovarian
[34] = test system: OVCAR-8 ovarian
[35] = test system: PC-3 prostate
[36] = test system: RXF 393 renal
[37] = test system: SF-268 CNS
[38] = test system: SF-295 CNS
[39] = test system: SF-539 CNS
[40] = test system: SK-MEL-2 melanoma
[41] = test system: SK-MEL-28 melanoma
[42] = test system: SK-MEL-5 melanoma
[43] = test system: SK-OV-3 ovarian
[44] = test system: SN12C renal
[45] = test system: SNB-19 CNS
[46] = test system: SNB-75 CNS
[47] = test system: SR leukemia
[48] = test system: SW-620 colon
[49] = test system: T-47D breast
[50] = test system: TK-10 renal
[51] = test system: U251 glioblastoma
[52] = test system: UACC-257 melanoma
[53] = test system: UACC-62 melanoma
[54] = test system: UO-31 renal

CC[C@@]1(O)C(=O)OCc2c1cc1n(c2=O)Cc2c-1nc1cc(F)c(C)c3c1c2[C@@H](N)CC3
GI50 [1]: < 10 nM
TGI [1]: < 10 nM
GI50 [2]: < 10 nM
TGI [2]: 14.2 nM
GI50 [3]: < 10 nM
TGI [3]: 43.1 nM
GI50 [4]: < 10 nM
TGI [4]: < 10 nM
GI50 [5]: < 10 nM
TGI [5]: < 10 nM
GI50 [6]: < 10 nM
TGI [6]: 11.7 nM
GI50 [7]: < 10 nM
TGI [7]: 159 nM
GI50 [8]: < 10 nM
TGI [8]: < 10 nM
GI50 [9]: < 10 nM
TGI [9]: 243 nM
GI50 [10]: < 10 nM
TGI [10]: 22.1 nM
GI50 [11]: < 10 nM
TGI [11]: 120 nM
GI50 [12]: < 10 nM
TGI [12]: < 10 nM
GI50 [13]: < 10 nM
TGI [13]: < 10 nM
GI50 [14]: < 10 nM
TGI [14]: 11 nM
GI50 [15]: < 10 nM
TGI [15]: 10.7 nM
GI50 [16]: < 10 nM
TGI [16]: 103 nM
GI50 [17]: < 10 nM
TGI [17]: 132 nM
GI50 [18]: < 10 nM
TGI [18]: < 10 nM
GI50 [19]: < 10 nM
TGI [19]: 18.7 nM
GI50 [20]: < 10 nM
TGI [20]: 84 nM
GI50 [21]: < 10 nM
TGI [21]: < 10 nM
GI50 [22]: 23.3 nM
TGI [22]: 617 nM
GI50 [23]: < 10 nM
TGI [23]: 177 nM
GI50 [24]: < 10 nM
TGI [24]: < 10 nM
GI50 [25]: < 10 nM
TGI [25]: < 10 nM
GI50 [26]: < 10 nM
TGI [26]: < 10 nM
GI50 [27]: < 10 nM
TGI [27]: < 10 nM
GI50 [28]: < 10 nM
TGI [28]: 17.4 nM
GI50 [29]: < 10 nM
TGI [29]: 16.7 nM
GI50 [30]: < 10 nM
TGI [30]: < 10 nM
GI50 [31]: < 10 nM
TGI [31]: 31.7 nM
GI50 [32]: 19 nM
TGI [32]: 308 nM
GI50 [33]: < 10 nM
TGI [33]: 43 nM
GI50 [34]: < 10 nM
TGI [34]: 39.8 nM
GI50 [35]: < 10 nM
TGI [35]: 1050 nM
GI50 [36]: < 10 nM
TGI [36]: < 10 nM
GI50 [37]: < 10 nM
TGI [37]: < 10 nM
GI50 [38]: < 10 nM
TGI [38]: < 10 nM
GI50 [39]: < 10 nM
TGI [39]: < 10 nM
GI50 [40]: < 10 nM
TGI [40]: 29.2 nM
GI50 [41]: < 10 nM
TGI [41]: 133 nM
GI50 [42]: < 10 nM
TGI [42]: < 10 nM
GI50 [43]: < 10 nM
TGI [43]: < 10 nM
GI50 [44]: < 10 nM
TGI [44]: < 10 nM
GI50 [45]: < 10 nM
TGI [45]: 25.9 nM
GI50 [46]: < 10 nM
TGI [46]: < 10 nM
GI50 [47]: < 10 nM
TGI [47]: < 10 nM
GI50 [48]: < 10 nM
TGI [48]: 108 nM
GI50 [49]: < 10 nM
TGI [49]: < 10 nM
GI50 [50]: < 10 nM
TGI [50]: 608 nM
GI50 [51]: < 10 nM
TGI [51]: < 10 nM
GI50 [52]: < 10 nM
TGI [52]: < 10 nM
GI50 [53]: < 10 nM
TGI [53]: < 10 nM
GI50 [54]: < 10 nM
TGI [54]: < 10 nM
